Data as given in PubChem BioAssay AID256 (DTP/NCI, 2004).
Toxic doses and inconclusive results are not listed. The calls were made as follows: active = survival T/C of 150% or more; inactive = T/C below 125% in these data.

System: CD2F1 mice, L1210 leukemia ip, survival T/C
Assay: NCI In Vivo Anticancer Drug Screen. Data for tumor model L1210 Leukemia (intraperitoneal) in CD2F1 (CDF1) mice
Details: higher = longer survival
How it was run: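 Each value reflects a quotient of treated over vehicle control outcomes in mice with a transplanted tumor.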

[1] = endpoint: mean survival time, dose: 100.0 mg/kg/injection, schedule: Q01DX009 (ip), vehicle: saline with Tween-80
[2] = endpoint: mean survival time, dose: 200.0 mg/kg/injection, schedule: Q01DX009 (ip), vehicle: saline with Tween-80
[3] = endpoint: mean survival time, dose: 100.0 mg/kg/injection, schedule: Q04DX003 (ip), vehicle: saline with Tween-80
[4] = endpoint: mean survival time, dose: 200.0 mg/kg/injection, schedule: Q04DX003 (ip), vehicle: saline with Tween-80
[5] = endpoint: mean survival time, dose: 400.0 mg/kg/injection, schedule: Q04DX003 (ip), vehicle: saline with Tween-80

Measured: T/C

O=C(CCl)Nc1cc(Cl)c(Cl)cc1Cl
inactive: [1] 97 % of control | [2] 94 % of control | endpoint: mean survival time, dose: 400.0 mg/kg/injection, schedule: Q01DX009 (ip), vehicle: saline with Tween-80 102 % of control

O=C(NS(=O)(=O)c1ccc(Cl)cc1)OCCCl
inactive: [1] 96 % of control | [3] 97 % of control | [2] 96 % of control | [4] 97 % of control | [5] 102 % of control

CSc1cc(C)n2nnnc2n1
inactive: endpoint: mean survival time, dose: 100.0 mg/kg/injection, schedule: Q01DX001 (ip), vehicle: saline 101 % of control

CC(C)N1C(=O)N(Cl)C2C1N(Cl)C(=O)N2Cl (centres undefined)
inactive: endpoint: median survival time, dose: 1.5 mg/kg/injection, schedule: Q01DX009 (ip), vehicle: saline with Tween-80 101 % of control | endpoint: median survival time, dose: 3.0 mg/kg/injection, schedule: Q01DX009 (ip), vehicle: saline with Tween-80 102 % of control | endpoint: median survival time, dose: 6.0 mg/kg/injection, schedule: Q01DX009 (ip), vehicle: saline with Tween-80 93 % of control | endpoint: median survival time, dose: 12.0 mg/kg/injection, schedule: Q01DX009 (ip), vehicle: saline with Tween-80 103 % of control | endpoint: median survival time, dose: 24.0 mg/kg/injection, schedule: Q01DX009 (ip), vehicle: saline with Tween-80 104 % of control | endpoint: median survival time, dose: 25.0 mg/kg/injection, schedule: Q01DX009 (ip), vehicle: saline with Tween-80 100 % of control

CCOC(Cc1cccc2ccccc12)(c1ccccc1)c1ccccc1
inactive: [3] 101 % of control | [4] 98 % of control | [5] 101 % of control

CCCCCCCCCCCCCCCOc1ccc2ccccc2c1
inactive: endpoint: mean survival time, dose: 100.0 mg/kg/injection, schedule: Q01DX001 (ip), vehicle: Klucel (hydroxypropylcellulose) (HPC) 102 % of control | endpoint: mean survival time, dose: 200.0 mg/kg/injection, schedule: Q01DX001 (ip), vehicle: Klucel (hydroxypropylcellulose) (HPC) 94 % of control | endpoint: mean survival time, dose: 400.0 mg/kg/injection, schedule: Q01DX001 (ip), vehicle: Klucel (hydroxypropylcellulose) (HPC) 90 % of control

Cc1cncn1Cc1ccccc1
inactive: endpoint: mean survival time, dose: 50.0 mg/kg/injection, schedule: Q01DX009 (ip), vehicle: Klucel (hydroxypropylcellulose) (HPC) 94 % of control | endpoint: mean survival time, dose: 100.0 mg/kg/injection, schedule: Q01DX009 (ip), vehicle: Klucel (hydroxypropylcellulose) (HPC) 108 % of control | endpoint: mean survival time, dose: 200.0 mg/kg/injection, schedule: Q01DX009 (ip), vehicle: Klucel (hydroxypropylcellulose) (HPC) 103 % of control

COc1ccc2c(c1)CC/C2=N/O
inactive: [3] 97 % of control | [4] 103 % of control | [5] 107 % of control

O=c1c2ccc(Cl)cc2[nH]c(=S)n1-c1ccc(Cl)cc1
inactive: [3] 104 % of control | [4] 93 % of control | [5] 102 % of control

CC(=O)/C=C\C1OC(n2ccc(=O)[nH]c2=O)C2OC(C)(C)OC12 (centres undefined)
inactive: endpoint: mean survival time, dose: 12.5 mg/kg/injection, schedule: Q01DX005 (ip), vehicle: distilled water + Tween-80 105 % of control | endpoint: mean survival time, dose: 25.0 mg/kg/injection, schedule: Q01DX005 (ip), vehicle: distilled water + Tween-80 103 % of control | endpoint: mean survival time, dose: 50.0 mg/kg/injection, schedule: Q01DX005 (ip), vehicle: distilled water + Tween-80 97 % of control | endpoint: mean survival time, dose: 100.0 mg/kg/injection, schedule: Q01DX005 (ip), vehicle: distilled water + Tween-80 102 % of control | endpoint: mean survival time, dose: 200.0 mg/kg/injection, schedule: Q01DX005 (ip), vehicle: distilled water + Tween-80 103 % of control

CCN(CC)CCOc1ccc(/C(=C(\Cl)c2ccccc2)c2ccccc2)cc1
inactive: endpoint: mean survival time, dose: 3.12 mg/kg/injection, schedule: Q04DX003 (ip), vehicle: saline with Tween-80 100 % of control | endpoint: mean survival time, dose: 3.13 mg/kg/injection, schedule: Q01DX009 (ip), vehicle: saline with Tween-80 104 % of control | endpoint: mean survival time, dose: 6.25 mg/kg/injection, schedule: Q01DX009 (ip), vehicle: saline with Tween-80 102 % of control | endpoint: mean survival time, dose: 6.25 mg/kg/injection, schedule: Q04DX003 (ip), vehicle: saline with Tween-80 94 % of control | endpoint: mean survival time, dose: 12.5 mg/kg/injection, schedule: Q01DX009 (ip), vehicle: saline with Tween-80 105 % of control | endpoint: mean survival time, dose: 12.5 mg/kg/injection, schedule: Q04DX003 (ip), vehicle: saline with Tween-80 97 % of control | endpoint: mean survival time, dose: 25.0 mg/kg/injection, schedule: Q01DX009 (ip), vehicle: saline with Tween-80 107 % of control | endpoint: mean survival time, dose: 25.0 mg/kg/injection, schedule: Q04DX003 (ip), vehicle: saline with Tween-80 97 % of control | endpoint: mean survival time, dose: 50.0 mg/kg/injection, schedule: Q01DX009 (ip), vehicle: saline with Tween-80 91 % of control | endpoint: mean survival time, dose: 50.0 mg/kg/injection, schedule: Q04DX003 (ip), vehicle: saline with Tween-80 100 % of control | [3] 105 % of control

CCCCCCCCC(=O)O
inactive: [3] 100 % of control | [4] 100 % of control | [5] 102 % of control
